Entries after “also recorded” stand apart in the source; their conditions may differ.
How the values were obtained:
[1] = tested on: human GB line; details: CXCR4 blocked; cited from earlier work
[2] = tested on: PBT-05 cells; experiment: In vitro phagocytosis assay, PBT-05 co-culture with murine bone marrow derived macrophages (BMDM); type: cell-based, human; details: for contribution to tumor cell cytotoxicity when added to CD47 blockade: murine macrophage co-cultures, compared with CD47 blockade alone; for effect on viability of tumor cells in co-culture: polarizing agent without CD47mAb
From the text: These cultures were challenged with combinations of macrophage checkpoint inhibitors (MCIs) and immune cell polarizing factors described by literature as capable of promoting an immune response against tumor cells. […] Compared to a media control, no combination of MCIs and polarizing factors caused significant cytotoxicity of PBT-05 cells cultured alone, confirming the observed cytotoxic effect is mediated by the macrophages, not the drugs themselves.
Murine monocytes were harvested and cultured from femurs of C57BL/6 mice using RPMI (Thermofisher, 11875093) containing 10% heat deactivated FBS and 100 ng/mL mCSF1 for 7 days. Mature macrophages from these cultures were later harvested for experiments. Human monocytes were isolated from human PBMCs (Bloodworks) and purified by EasySep monocyte depletion kit (StemCell, 19355). Monocytes were cultured in RPMI containing 10% heat deactivated FBS and 25 ng/mL human CSF1 for 10 days. 50 ng/mL IL-10 was added to the cultures at day 5 to induce M2 phenotypes. Mature macrophages were later harvested for use in experiments.
Monoclonal antibodies were purchased from Bioxcell (LEAF hCD47, BE0019) and Biolegend (LEAF hCD24mAb: 101810, MsIgG1: 400153). Phagocytosis assays were performed using the Basic Analyzer software on Essen Bio's Incucyte Zoom and Incucyte S3. 12 or 24 well plates were seeded 1:1 with GFP+ tumor lines and macrophages (murine/human) in fully supplemented Neuralcult plus various MCIs and immunomodulators described previously. Using the aforementioned definitions, the Incucyte calculated tumor cell counts based on the number of GFP+ nuclei in the wells over time.

[3] = tested on: PBT-05 cells; experiment: In vitro chemotaxis assay (Incucyte transwell); type: cell-based, human; details: patient-derived pHGG line PBT-05
From the text: Locally delivered therapeutics in the brain may need to account for the tendency of remnant brain tumor cells to migrate away from the tumor margins—potentially out of reach locally delivered therapeutics. Here, artificial gradients of chemokines were used to lure tumor cells and phagocytic cells in the brain towards a static “trap” of macrophage-enhancing therapeutics to facilitate tumor cell elimination. Referring to FIGS. 4A-4D, to model this, a patient-derived, pediatric high grade glioma (pHGG) line, PBT-05, was used. […] In vitro chemotaxis assays were carried out with PBT-05 against a panel of classical chemokines cited in literature as potentially being potent against migratory brain tumor cells. […] Without wishing to be bound by theory, it is believed that PBT-05's attraction towards hCCL2 gradients may be mediated by another receptor promiscuous with this chemokine. While this receptor was not identified, mCCL2 may not bind to it or produce the same downstream signaling. However, its chemotactic sensitivity to human and murine CXCL12 may be mediated by the canonical pathway.
Chemokines were purchased from: Sigma-Aldrich (CCL2: SRP3109) and RnD Systems (CXCL12: 350-NS/CF). Cell migration assays were performed using the chemotaxis module on the Incucyte Zoom 2016 and S3 (Essen Bio). Specialized 96 well transwell plates and reservoir dishes were supplied by the manufacturer (cat no's 4582, 4600). H2B-GFP+ PBT05 lines cells were cultured in the Neuralcult media+supplement without EGF/FGF to reduce background mobility caused by these growth factors. The Incucyte software was tailored to identify GFP+ nuclei to count the number of tumor cells on top and bottom of the transwell membranes.

[4] = target: CD47 on PBT-05 patient-derived pediatric high grade glioma cells (human) (UniProt Q08722); experiment: cell-based or functional assay
Chain of UniProt Q08722 (Q08722 19-323): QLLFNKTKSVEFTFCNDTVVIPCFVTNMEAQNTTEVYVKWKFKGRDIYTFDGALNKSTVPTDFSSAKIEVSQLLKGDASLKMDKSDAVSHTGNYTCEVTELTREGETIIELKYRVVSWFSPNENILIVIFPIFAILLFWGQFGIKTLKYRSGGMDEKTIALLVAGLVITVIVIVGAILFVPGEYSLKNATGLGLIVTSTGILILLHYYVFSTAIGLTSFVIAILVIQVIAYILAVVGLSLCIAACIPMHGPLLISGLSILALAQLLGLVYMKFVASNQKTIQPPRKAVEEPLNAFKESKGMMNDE

## c1cc(CN2CCCNCCNCCCNCC2)ccc1CN1CCCNCCNCCCNCC1 [AMD3100]
[1]
  chemotaxis towards gradients of CXCL12: reduced chemotaxis

## CCOCc1nc2c(N)nc3ccccc3c2n1CC(C)(C)O [R848, reference compound]
[2]
  contribution to tumor cell cytotoxicity when added to CD47 blockade: did not significantly contribute to tumor cell cytotoxicity; also recorded: did not significantly increase cytotoxicity
  effect on viability of tumor cells in co-culture: mild effects

## CCL2: classical chemokine, purchased from Sigma-Aldrich (SRP3109)
[3]
  chemotaxis of PBT-05 cells (chemotactic potency): induced varying degrees of chemotaxis; also recorded: varying sensitivity

## CXCL12: classical chemokine, ligand of CXCR4, purchased from RnD Systems (350-NS/CF)
[3]
  chemotaxis of PBT-05 cells (chemotactic potency): effective at eliciting chemotaxis; also recorded: induced varying degrees of chemotaxis; also recorded: effective at eliciting migration; also recorded: effectively chemoattract; also recorded: varying sensitivity

## LEAF hCD47 monoclonal antibody (Bioxcell, BE0019)
[4]
  phagocytosis of PBT-05 cells by murine and human macrophages in co-culture (tumor cell count); antibody concentration that was effective: 1 µg/mL

## hCCL2: human CCL2 chemokine
[3]
  chemotaxis of PBT-05 cells (chemotactic potency): greatest potency of the chemokines tested

## mCCL2: murine version of the chemokine CCL2
[3]
  chemotaxis of PBT-05 cells (chemotactic potency): unresponsive

## mCXCL12: murine CXCL12 chemokine
[3]
  chemotaxis of PBT-05 cells (chemotactic potency): lost some potency

B1: IFNg: polarizing agent (cytokine) that induces activated phenotypes in macrophages (protein, UniProt P01579 24-161, looked up)
Interferon gamma: QDPYVKEAENLKKYFNAGHSDVADNGTLFLGILKNWKEESDRKIMQSQIVSFYFKLFKNFKDDQSIQKSVETIKEDMNVKFFNSNKKKRDDFEKLTNYSVTDLNVQRKAIHELIQVMAELSPAAKTGKRKRSQMLFRG
[2]
  contribution to tumor cell cytotoxicity when added to CD47 blockade: did not significantly contribute to tumor cell cytotoxicity; also recorded: did not significantly increase cytotoxicity
  effect on viability of tumor cells in co-culture: mild effects

Source: US20230097658A1, “TUNABLE EXTENDED RELEASE HYDROGELS” (FRED HUTCHINSON CANCER RESEARCH CENTER, priority 2020, published 2023)
